Experiments:
Type in all cases: physicochemical
[1] = TG-FTIR thermal stability (weight loss / degradation)
[2] = Glass transition temperature by differential scanning calorimetry (DSC); conditions: for glass transition temperature (Tg) compared with glycopyrronium bromide: comparison with glycopyrronium bromide (1)
[3] = Characterisation of moisture sorption (hygroscopicity) of the amorphous form; conditions: sorption of moisture at low relative humidity
Excerpt: Part of the development of glycopyrronium bromide involves milling of the active substance down to a particle size suitable for use in a dry powder inhalation formulation. […] This material becomes sticky upon sorption of moisture at low relative humidity (RH), and then finally crystallises to a non-hygoscopic hard crystalline substance.
The amorphous form of glycopyrronium iodide (2), for example, can be formed by physical techniques such as spray drying or lyophylisation and its sorption behaviour studied by dynamic vapour sorption (DVS) varying RH over time.

| Compound | TG-FTIR weight loss / degradation [1] | glass transition temperature (Tg) compared with glycopyrronium bromide [2] | glass transition temperature (Tg) ([2]; amorphous material, determined by DSC) | hygroscopicity of the amorphous form [3] | Tg (glass transition) ([2]; lyophilized material, DSC second scan) |
| --- | --- | --- | --- | --- | --- |
| Glycopyrronium Acetate | no significant weight loss below 200° C., degrades above this temperature | lower glass transition temperature (Tg) than glycopyrronium bromide | – | – | – |
| Glycopyrronium Sulphate | no significant weight loss below 200° C., degrades above this temperature | lower glass transition temperature (Tg) than glycopyrronium bromide | – | – | – |
| C[N+]1(C)CCC(OC(=O)C(O)(c2ccccc2)C2CCCC2)C1 (stereo not drawn) [glycopyrronium bromide, reference compound] | – | – | 64.9 °C | highly hygroscopic | – |
| Glycopyrronium Iodide | no significant weight loss below 200° C., degrades above this temperature | lower glass transition temperature (Tg) than glycopyrronium bromide | – | – | 55 °C |
